Columns and labels:
Test in all cases: biochemical
Conditions in all cases: read-out: % inhibition mean (Z'Lyte)
[1] = target: ABL1 F317L (Homo sapiens, UniProt P00519, F317L)
[2] = target: ALK (Homo sapiens, UniProt Q9UM73)
[3] = target: AMPK (A1/B2/G3) (Homo sapiens, UniProt Q13131)
[4] = target: AURKB (Aurora B) (Homo sapiens, UniProt Q96GD4)
[5] = target: AURKC (Aurora C) (Homo sapiens, UniProt Q9UQB9)
[6] = target: CDC42 BPB (MRCKB) (Homo sapiens, UniProt Q9Y5S2)
[7] = target: CSNK1D (CK1 delta) (Homo sapiens, UniProt P48730)
[8] = target: CSNK1G1 (CK1 gamma 1) (Homo sapiens, UniProt Q9HCP0)
Chain of CSNK1G1 (CK1 gamma 1) (Q9HCP0 whole entry): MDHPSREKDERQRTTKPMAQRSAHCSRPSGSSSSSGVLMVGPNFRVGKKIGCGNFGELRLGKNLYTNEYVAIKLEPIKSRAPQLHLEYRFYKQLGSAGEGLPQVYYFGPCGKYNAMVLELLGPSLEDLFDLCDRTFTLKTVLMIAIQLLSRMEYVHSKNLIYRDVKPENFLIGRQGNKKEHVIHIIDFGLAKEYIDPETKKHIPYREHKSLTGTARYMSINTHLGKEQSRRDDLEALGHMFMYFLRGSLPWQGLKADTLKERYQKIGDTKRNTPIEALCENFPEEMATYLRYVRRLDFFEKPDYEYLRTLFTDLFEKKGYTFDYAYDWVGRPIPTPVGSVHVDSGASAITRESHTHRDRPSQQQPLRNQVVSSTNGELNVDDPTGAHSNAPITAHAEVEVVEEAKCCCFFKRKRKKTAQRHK

[9] = target: DYRK1A (Homo sapiens, UniProt Q13627)
[10] = target: EPHA2 (Homo sapiens, UniProt P29317)
[11] = target: ERBB4 (HER4) (Homo sapiens, UniProt Q15303)
Chain of ERBB4 (HER4) (Q15303 whole entry): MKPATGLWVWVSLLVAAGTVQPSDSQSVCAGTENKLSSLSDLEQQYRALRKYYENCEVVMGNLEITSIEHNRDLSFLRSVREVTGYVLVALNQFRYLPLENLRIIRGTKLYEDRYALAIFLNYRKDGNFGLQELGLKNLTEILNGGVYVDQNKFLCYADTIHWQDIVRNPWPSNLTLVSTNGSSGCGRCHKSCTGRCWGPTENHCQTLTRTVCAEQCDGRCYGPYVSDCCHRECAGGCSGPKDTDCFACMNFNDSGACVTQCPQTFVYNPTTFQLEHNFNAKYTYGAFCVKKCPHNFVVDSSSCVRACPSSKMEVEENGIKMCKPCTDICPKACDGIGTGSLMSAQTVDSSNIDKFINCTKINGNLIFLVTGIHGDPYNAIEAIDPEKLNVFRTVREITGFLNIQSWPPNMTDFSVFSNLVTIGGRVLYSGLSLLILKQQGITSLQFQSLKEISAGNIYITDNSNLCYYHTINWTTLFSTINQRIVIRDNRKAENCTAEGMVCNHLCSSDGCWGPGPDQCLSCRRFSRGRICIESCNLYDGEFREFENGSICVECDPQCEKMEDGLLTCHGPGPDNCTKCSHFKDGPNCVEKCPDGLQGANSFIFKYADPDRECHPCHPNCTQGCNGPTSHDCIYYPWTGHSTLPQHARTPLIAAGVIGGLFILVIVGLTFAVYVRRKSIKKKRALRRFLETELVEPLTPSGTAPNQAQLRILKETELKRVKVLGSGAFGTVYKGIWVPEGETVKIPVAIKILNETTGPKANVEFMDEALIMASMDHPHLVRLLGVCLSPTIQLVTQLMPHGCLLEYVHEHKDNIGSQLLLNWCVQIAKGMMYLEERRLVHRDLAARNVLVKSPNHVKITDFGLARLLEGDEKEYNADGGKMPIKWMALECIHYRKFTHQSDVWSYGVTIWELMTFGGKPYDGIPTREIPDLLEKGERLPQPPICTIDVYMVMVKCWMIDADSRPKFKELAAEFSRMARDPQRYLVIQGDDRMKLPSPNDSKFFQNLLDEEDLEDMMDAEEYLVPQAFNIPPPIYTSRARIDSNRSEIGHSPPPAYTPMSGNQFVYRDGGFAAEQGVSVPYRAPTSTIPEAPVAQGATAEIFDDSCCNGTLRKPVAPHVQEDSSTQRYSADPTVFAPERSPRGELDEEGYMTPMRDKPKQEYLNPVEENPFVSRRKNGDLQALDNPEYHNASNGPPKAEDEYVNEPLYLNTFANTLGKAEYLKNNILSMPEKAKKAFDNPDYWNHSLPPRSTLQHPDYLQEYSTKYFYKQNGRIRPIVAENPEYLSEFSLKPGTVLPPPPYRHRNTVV

[12] = target: FGFR3 (Homo sapiens, UniProt P22607)
Chain of FGFR3 (P22607 whole entry): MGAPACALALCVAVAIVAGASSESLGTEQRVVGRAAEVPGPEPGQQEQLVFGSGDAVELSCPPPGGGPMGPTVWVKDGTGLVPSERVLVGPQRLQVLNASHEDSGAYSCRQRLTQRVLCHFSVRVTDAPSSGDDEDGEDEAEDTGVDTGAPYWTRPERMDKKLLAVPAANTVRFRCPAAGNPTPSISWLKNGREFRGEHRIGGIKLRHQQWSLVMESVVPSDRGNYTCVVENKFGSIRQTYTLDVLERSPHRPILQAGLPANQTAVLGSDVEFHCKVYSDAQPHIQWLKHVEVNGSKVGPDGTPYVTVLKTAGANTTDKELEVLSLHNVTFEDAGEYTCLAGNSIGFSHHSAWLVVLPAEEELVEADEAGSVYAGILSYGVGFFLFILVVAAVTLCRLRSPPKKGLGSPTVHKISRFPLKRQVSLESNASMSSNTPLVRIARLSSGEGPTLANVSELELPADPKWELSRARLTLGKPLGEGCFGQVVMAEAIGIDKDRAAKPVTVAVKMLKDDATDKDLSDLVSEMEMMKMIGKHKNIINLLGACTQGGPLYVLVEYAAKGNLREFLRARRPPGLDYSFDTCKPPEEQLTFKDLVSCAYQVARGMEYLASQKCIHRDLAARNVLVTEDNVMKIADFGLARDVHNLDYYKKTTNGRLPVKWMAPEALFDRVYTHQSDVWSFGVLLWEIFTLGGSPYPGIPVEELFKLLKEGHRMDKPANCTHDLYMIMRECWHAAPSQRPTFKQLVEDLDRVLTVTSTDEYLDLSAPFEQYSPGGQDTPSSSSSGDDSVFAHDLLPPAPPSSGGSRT

[13] = target: FRAP1 (mTOR) (Homo sapiens, UniProt P42345)
[14] = target: GRK5 (Homo sapiens, UniProt P34947)
[15] = target: HIPK1 (Myak) (Homo sapiens, UniProt Q86Z02)
[16] = target: INSRR (IRR) (Homo sapiens, UniProt P14616)
[17] = target: MAP4K2 (GCK) (Homo sapiens, UniProt Q12851)
Chain of MAP4K2 (GCK) (Q12851 whole entry): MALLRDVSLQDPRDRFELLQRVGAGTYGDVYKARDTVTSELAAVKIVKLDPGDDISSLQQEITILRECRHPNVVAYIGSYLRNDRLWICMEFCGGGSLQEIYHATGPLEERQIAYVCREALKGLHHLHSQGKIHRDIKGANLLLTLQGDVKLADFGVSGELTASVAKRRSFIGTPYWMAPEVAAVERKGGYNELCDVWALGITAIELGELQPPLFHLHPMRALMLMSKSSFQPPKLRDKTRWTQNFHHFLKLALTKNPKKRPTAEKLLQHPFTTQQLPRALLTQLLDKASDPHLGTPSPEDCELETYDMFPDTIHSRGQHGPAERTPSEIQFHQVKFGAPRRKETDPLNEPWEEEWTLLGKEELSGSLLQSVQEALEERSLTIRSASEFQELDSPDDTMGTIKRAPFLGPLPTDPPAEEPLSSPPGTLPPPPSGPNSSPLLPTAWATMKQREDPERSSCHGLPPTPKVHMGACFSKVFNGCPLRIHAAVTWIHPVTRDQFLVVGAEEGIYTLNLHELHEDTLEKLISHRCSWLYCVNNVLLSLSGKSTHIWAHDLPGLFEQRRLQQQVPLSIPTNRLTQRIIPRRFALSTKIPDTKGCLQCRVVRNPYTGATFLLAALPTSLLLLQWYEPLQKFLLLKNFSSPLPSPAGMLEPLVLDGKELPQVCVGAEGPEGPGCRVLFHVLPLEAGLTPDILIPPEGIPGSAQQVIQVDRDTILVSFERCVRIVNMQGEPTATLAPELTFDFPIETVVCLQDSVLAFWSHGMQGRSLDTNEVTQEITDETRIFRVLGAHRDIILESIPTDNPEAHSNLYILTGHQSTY

[18] = target: MAPK7 (ERK5) (Homo sapiens, UniProt Q13164)
[19] = target: MAPK9 (JNK2) (Homo sapiens, UniProt P45984)
[20] = target: MARK2 (Homo sapiens, UniProt Q7KZI7)
[21] = target: PDGFRA T674I (Homo sapiens, UniProt P16234, T674I)
[22] = target: PRKCA (PKC alpha) (Homo sapiens, UniProt P17252)
[23] = target: PRKG1 (Homo sapiens, UniProt Q13976)
[24] = target: ROS1 (Homo sapiens, UniProt P08922)
[25] = target: RPS6KB1 (p70S6K) (Homo sapiens, UniProt P23443)
[26] = target: SRC (Homo sapiens, UniProt P12931)
[27] = target: SRMS (Srm) (Homo sapiens, UniProt Q9H3Y6)
Chain of SRMS (Srm) (Q9H3Y6 whole entry): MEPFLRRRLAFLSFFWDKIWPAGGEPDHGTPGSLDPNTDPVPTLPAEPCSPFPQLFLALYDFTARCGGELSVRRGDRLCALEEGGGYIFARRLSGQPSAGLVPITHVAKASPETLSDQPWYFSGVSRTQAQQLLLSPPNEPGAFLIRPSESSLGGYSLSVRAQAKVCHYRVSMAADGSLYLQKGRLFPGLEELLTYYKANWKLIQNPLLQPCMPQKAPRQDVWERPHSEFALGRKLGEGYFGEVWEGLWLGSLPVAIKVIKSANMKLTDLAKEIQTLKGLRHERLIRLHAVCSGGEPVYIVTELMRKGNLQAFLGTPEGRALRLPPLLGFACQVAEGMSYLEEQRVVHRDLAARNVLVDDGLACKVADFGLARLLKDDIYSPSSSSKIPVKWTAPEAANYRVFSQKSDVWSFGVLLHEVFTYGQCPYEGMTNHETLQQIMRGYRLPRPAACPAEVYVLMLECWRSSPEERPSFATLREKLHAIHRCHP

[28] = target: STK22B (TSSK2) (Homo sapiens, UniProt Q96PF2)
[29] = target: TAOK2 (TAO1) (Homo sapiens, UniProt Q9UL54)

Chain of ABL1 F317L (P00519 whole entry F317L): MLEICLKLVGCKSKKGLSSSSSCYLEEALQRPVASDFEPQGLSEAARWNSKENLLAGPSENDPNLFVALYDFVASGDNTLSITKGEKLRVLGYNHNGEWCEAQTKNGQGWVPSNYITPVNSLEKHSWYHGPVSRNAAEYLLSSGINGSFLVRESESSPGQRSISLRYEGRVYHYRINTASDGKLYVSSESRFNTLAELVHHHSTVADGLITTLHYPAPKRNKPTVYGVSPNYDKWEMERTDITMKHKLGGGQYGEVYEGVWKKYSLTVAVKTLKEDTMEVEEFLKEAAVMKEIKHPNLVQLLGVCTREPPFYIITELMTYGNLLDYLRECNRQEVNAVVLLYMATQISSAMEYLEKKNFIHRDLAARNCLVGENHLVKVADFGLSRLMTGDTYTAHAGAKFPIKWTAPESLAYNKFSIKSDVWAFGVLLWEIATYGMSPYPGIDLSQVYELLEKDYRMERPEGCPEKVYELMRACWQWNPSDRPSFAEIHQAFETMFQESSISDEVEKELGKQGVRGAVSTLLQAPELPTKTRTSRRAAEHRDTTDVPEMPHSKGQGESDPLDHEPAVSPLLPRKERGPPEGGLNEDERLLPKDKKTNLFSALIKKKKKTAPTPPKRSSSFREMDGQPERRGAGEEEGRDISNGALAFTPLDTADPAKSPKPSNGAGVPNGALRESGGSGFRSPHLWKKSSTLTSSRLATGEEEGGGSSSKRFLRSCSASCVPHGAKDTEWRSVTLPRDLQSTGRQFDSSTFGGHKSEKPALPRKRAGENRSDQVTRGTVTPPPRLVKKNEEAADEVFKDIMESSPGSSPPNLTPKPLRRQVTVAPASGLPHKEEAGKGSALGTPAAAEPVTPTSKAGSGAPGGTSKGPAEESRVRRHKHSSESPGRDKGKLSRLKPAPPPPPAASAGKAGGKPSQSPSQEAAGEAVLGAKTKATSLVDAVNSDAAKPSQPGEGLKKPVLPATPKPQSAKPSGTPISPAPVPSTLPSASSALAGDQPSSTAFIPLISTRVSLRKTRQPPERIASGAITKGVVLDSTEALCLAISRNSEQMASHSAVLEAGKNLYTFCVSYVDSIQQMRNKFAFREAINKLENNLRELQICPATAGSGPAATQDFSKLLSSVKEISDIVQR

In the case of COc1ccc2nc3cc(Cl)ccc3c(Nc3cc(CN4CCCC4)c(O)c(CN4CCCC4)c3)c2n1 [Pyronaridine, 4-[(7-Chloro-2-methoxybenzo[b][1,5]naphthyridin-10-yl)amino]-2,6-bis(1-pyrrolidinylmethyl)phenol phosphate (1:4)], the inhibition at 1 µM [1] is reported as -1%, the inhibition at 1 µM [2] is reported as -1% and the inhibition at 1 µM [3] is reported as 4%. The inhibition at 1 µM [4] was 5%, the inhibition at 1 µM [5] was -11% and the inhibition at 1 µM [6] was -3%. The inhibition at 1 µM [7] was 5%, the inhibition at 1 µM [8] was 0% and the inhibition at 1 µM [9] was 3%. For the same molecule, the inhibition at 1 µM [10] was 5%, the inhibition at 1 µM [11] was -2% and the inhibition at 1 µM [12] was -2%. The inhibition at 1 µM [13] was 1%, the inhibition at 1 µM [14] was 10% and the inhibition at 1 µM [15] was 1%. It also gave an inhibition at 1 µM [16] of -1%, an inhibition at 1 µM [17] of 5% and an inhibition at 1 µM [18] of 5%. The inhibition at 1 µM [19] was -15%, the inhibition at 1 µM [20] was 6% and the inhibition at 1 µM [21] was 0%. It also gave an inhibition at 1 µM [22] of 13%, an inhibition at 1 µM [23] of -6% and an inhibition at 1 µM [24] of -6%. For the same molecule, the inhibition at 1 µM [25] was 3%, the inhibition at 1 µM [26] was 14% and the inhibition at 1 µM [27] was 2%. It also gave an inhibition at 1 µM [28] of -2% and an inhibition at 1 µM [29] of -1%.
